Data: patent publication US8772499B2, “TRPV3 modulators” (AbbVie Inc., priority 2011, dated 2014)
Read-outs that look alike come from different tables or passages of the source.

What was measured:
[1] = In vitro human microsomal stability assay; assay type: in vitro ADME; settings: human, microsomes, 0.5 h, 0.5 μM, pH 7.4
How it was run: (§1)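 Compound is mixed with liver microsomes (human, or rat of the Sprague-Dawley strain). The mixture is then held at 37° C. in the presence of NADPH. Time-zero plates also receive NADPH.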

[2] = In vitro rat microsomal stability assay; assay type: in vitro ADME, rat (Sprague-Dawley); settings: Sprague-Dawley, rat, microsomes, 0.5 h, 0.5 μM, pH 7.4
How it was run: as §1

human TRPV3 = target: T1, human TRPV3 (Homo sapiens, UniProt Q8NET8); experiment: In vitro antagonism of recombinant human TRPV3 activation (FLIPR Tetra calcium assay); assay type: cell-based; settings: HEK293 cells stably expressing human TRPV3, agonist 2-APB at 80 μM
T1 construct: expressed in transfected cells
T1 sequence (Q8NET8 1-790): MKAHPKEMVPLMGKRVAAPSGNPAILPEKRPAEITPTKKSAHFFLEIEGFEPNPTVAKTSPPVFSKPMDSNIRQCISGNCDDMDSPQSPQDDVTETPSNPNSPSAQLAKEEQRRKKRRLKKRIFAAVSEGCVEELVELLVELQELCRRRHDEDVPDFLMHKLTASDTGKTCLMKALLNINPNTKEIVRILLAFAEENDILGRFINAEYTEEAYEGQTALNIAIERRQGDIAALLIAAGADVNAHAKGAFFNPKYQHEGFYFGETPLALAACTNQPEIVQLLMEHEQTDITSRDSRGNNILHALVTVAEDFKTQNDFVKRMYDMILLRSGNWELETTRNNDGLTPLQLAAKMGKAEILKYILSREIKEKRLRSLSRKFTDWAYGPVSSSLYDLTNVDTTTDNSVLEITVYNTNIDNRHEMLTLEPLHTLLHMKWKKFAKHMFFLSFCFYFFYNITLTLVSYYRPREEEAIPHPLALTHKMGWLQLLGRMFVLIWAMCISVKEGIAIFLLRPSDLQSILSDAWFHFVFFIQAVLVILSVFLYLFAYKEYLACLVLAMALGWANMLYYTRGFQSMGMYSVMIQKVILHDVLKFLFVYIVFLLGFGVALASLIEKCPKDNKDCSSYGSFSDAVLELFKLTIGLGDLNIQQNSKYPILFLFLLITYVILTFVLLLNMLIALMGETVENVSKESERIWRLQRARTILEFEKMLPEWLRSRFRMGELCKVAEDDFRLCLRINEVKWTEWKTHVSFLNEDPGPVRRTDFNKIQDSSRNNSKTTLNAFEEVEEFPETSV
How it was run: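 HEK293 cells stably expressing human TRPV3, loaded with Calcium-4 dye for 90–120 min, received compound in DPBS, then 80 μM 2-APB (EC80) 3 min later. Max-minus-min fluorescence expressed as % of 2-APB response without antagonist; IC50 values mostly averages of n≥2 runs.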

[3] = actual measured value shown parenthetically, in most cases average of at least two runs, read-out: IC50
[4] = reported range, read-out: IC50 (range class)

Compound | HUMAN MICROSOMAL STABILITY (% REMAINING AFTER 30 MINUTES) [1] [%] | RAT MICROSOMAL STABILITY (% REMAINING AFTER 30 MINUTES) [2] [%] | IC50 (human TRPV3; [3]) [µM] | IC50 (human TRPV3; [4]) [µM]
OC(C1CCc2cccnc21)C1(c2cccc(OC(F)(F)F)c2)CCC1 (stereo not drawn) [Example 190, (syn)-6,7-dihydro-5H-cyclopenta[b]pyridin-7-yl{1-[3-(trifluoromethoxy)-phenyl]cyclobutyl}methanol] | 3.7 | <0.01 | > 20 | > 20
OC(C1CCCc2cccnc21)C1(c2ccccc2OC(F)(F)F)CCC1 (stereo not drawn) [Example 191, (anti)-5,6,7,8-tetrahydroquinolin-8-yl{1-[2-(trifluoromethoxy)phenyl]-cyclobutyl}methanol] | <0.01 | <0.01 | > 7.4 | –
OC(C1CCCc2cccnc21)C1(c2ccccc2OC(F)(F)F)CCC1 (stereo not drawn) [Example 192, (syn)-5,6,7,8-tetrahydroquinolin-8-yl{1-[2-(trifluoromethoxy)phenyl]-cyclobutyl}methanol] | <0.01 | <0.01 | > 20 | > 20
OC(C1CCc2cccnc21)C1(c2ccccc2OC(F)(F)F)CCC1 (stereo not drawn) [Example 194, (syn)-6,7-dihydro-5H-cyclopenta[b]pyridin-7-yl{1-[2-(trifluoromethoxy)-phenyl]cyclobutyl}methanol] | 0.08 | <0.01 | > 20 | > 20
OC(C1CCCc2cccnc21)C1(c2ccccc2C(F)(F)F)CCC1 (stereo not drawn) [Example 195, (anti)-5,6,7,8-tetrahydroquinolin-8-yl{1-[2-(trifluoromethyl)phenyl]-cyclobutyl}methanol] | <0.01 | <0.01 | > 20 | > 20
OC(C1CCc2cccnc21)C1(c2ccccc2C(F)(F)F)CCC1 (stereo not drawn) [Example 197, (anti)-6,7-dihydro-5H-cyclopenta[b]pyridin-7-yl{1-[2-(trifluoromethyl)-phenyl]cyclobutyl}methanol] | 0.26 | <0.01 | > 20 | > 20
OC(C1CCc2cccnc21)C1(c2ccccc2C(F)(F)F)CCC1 (stereo not drawn) [Example 198, (syn)-6,7-dihydro-5H-cyclopenta[b]pyridin-7-yl{1-[2-(trifluoromethyl)-phenyl]cyclobutyl}methanol] | 0.05 | <0.01 | > 20 | > 20
O[C@H](c1ccccn1)[C@]1(c2ccc(C(F)(F)F)cc2)C[C@H](O)C1 [Example 200, cis-3-[(S)-hydroxy(pyridin-2-yl)methyl]-3-[4-(trifluoromethyl)phenyl]-cyclobutanol] | >85 | >85 | 5.25 | –
OC(c1ccccn1)C1(c2ccc(OC(F)(F)F)cc2)CC2(C1)OCCO2 (stereo not drawn) [Example 202, pyridin-2-yl{2-[4-(trifluoromethoxy)phenyl]-5,8-dioxaspiro[3.4]oct-2-yl}-methanol] | 73 | <0.01 | 5.17 | –
NC1CCCC1C(O)C1(c2cccc(C(F)(F)F)c2)CCC1 (stereo not drawn) [Example 204, (2-aminocyclopentyl) {1-[3-(trifluoromethyl)phenyl]cyclobutyl}methanol] | >85 | >85 | 1.6 | –
NC1CCCC1C(O)C1(c2ccc(C(F)(F)F)cc2)CCC1 (stereo not drawn) [Example 205, (2-aminocyclopentyl) {1-[4-(trifluoromethyl)phenyl]cyclobutyl}methanol] | >85 | >85 | 3.87 | –
NC1CCCC1C(O)C1(c2ccc(OC(F)(F)F)cc2)CCC1 (stereo not drawn) [Example 206, (2-aminocyclopentyl) {1-[4-(trifluoromethoxy)phenyl]cyclobutyl}methanol] | 83 | 62 | 2.63 | –
NC1CCCCC1C(O)C1(c2cccc(C(F)(F)F)c2)CCC1 (stereo not drawn) [Example 212, (2-aminocyclohexyl) {1-[3-(trifluoromethyl)phenyl]cyclobutyl}methanol] | >85 | 3.9 | 2.87 | –
NC1CCC1C(O)C1(c2cccc(C(F)(F)F)c2)CCC1 (stereo not drawn) [Example 213, (2-aminocyclobutyl) {1-[3-(trifluoromethyl)phenyl]cyclobutyl}methanol] | >85 | 72 | 3.24 | –
N[C@@H]1CCC[C@@H]1[C@@H](O)C1(c2ccc(Cl)c(Cl)c2)CCC1 [Example 216, (R)-[(1S,2R)-2-aminocyclopentyl][1-(3,4-dichlorophenyl)cyclobutyl]-methanol] | >85 | 41 | 2.26 | –
N[C@H]1CCC[C@H]1[C@H](O)C1(c2ccc(Cl)c(Cl)c2)CCC1 [Example 217, (S)-[(1R,2S)-2-aminocyclopentyl][1-(3,4-dichlorophenyl)cyclobutyl]-methanol] | 73 | 68 | 3.99 | –
N[C@@H]1CCC[C@H]1[C@@H](O)C1(c2ccc(Cl)c(Cl)c2)CCC1 [Example 220, (R)-[(1R,2R)-2-aminocyclopentyl][1-(3,4-dichlorophenyl)cyclobutyl]-methanol] | >85 | 67 | 0.65 | –
N[C@@H]1CCC[C@@H]1[C@@H](O)C1(c2ccc(OC(F)(F)F)cc2)CCC1 [Example 221, (R)-[(1S,2R)-2-aminocyclopentyl]{1-[4-(trifluoromethoxy)phenyl]-cyclobutyl}methanol] | 83 | 56 | 1.8 | –
N[C@H]1CCC[C@@H]1[C@H](O)C1(c2ccc(OC(F)(F)F)cc2)CCC1 [Example 222, (S)-[(1S,2S)-2-aminocyclopentyl]{1-[4-(trifluoromethoxy)phenyl]-cyclobutyl}methanol] | >85 | 59 | 2.35 | –
N[C@@H]1CCC[C@H]1[C@@H](O)C1(c2ccc(OC(F)(F)F)cc2)CCC1 [Example 223, (R)-[(1R,2R)-2-aminocyclopentyl]{1-[4-(trifluoromethoxy)phenyl]-cyclobutyl}methanol] | >85 | 65 | 2.07 | –
N[C@@H]1CCC[C@H]1[C@@H](O)C1(c2ccc(Cl)cc2)CCC1 [Example 224, (R)-[(1R,2R)-2-aminocyclopentyl][1-(4-chlorophenyl)cyclobutyl]methanol] | >85 | 70 | 4.84 | –
N[C@H]1CCC[C@@H]1[C@H](O)C1(c2ccc(Cl)cc2)CCC1 [Example 225, (S)-[(1S,2S)-2-aminocyclopentyl][1-(4-chlorophenyl)cyclobutyl]methanol] | >85 | 34 | 2.82 | –
N[C@H]1CCC[C@H]1[C@@H](O)C1(c2ccccc2F)CCC1 [Example 226, (R)-[(1R,2S)-2-aminocyclopentyl][1-(2-fluorophenyl)cyclobutyl]methanol] | >85 | <0.01 | 0.79 | –
N[C@@H]1CCC[C@H]1[C@@H](O)C1(c2cccc(C(F)(F)F)c2)CCC1 [Example 227, (R)-[(1R,2R)-2-aminocyclopentyl]{1-[3-(trifluoromethyl)phenyl]-cyclobutyl}methanol] | >85 | 42 | 0.5 | –
